# Tests used:
# [1] = system: IgE antibody in the serum from a WDEIA patient; assay: Epitope mapping (1): peptide array, chemiluminescent measurement of IgE binding using human serum; conditions: 15-amino-acid peptides on array; 2% serum; sera from WDEIA patients 1 to 3 vs healthy individuals 1 and 2; FIG. 1
# Protocol: Epitope mapping was performed by using a library of overlapping peptides (15 amino acids in length) corresponding to the full-length amino acid sequence of ω-5 gliadin from bread wheat (SEQ ID NO: 51).
# Each synthesized peptide was shifted by 10 amino acids. In other words, each peptide overlaps with the previous peptide and the next peptide, each by 5 amino acids.
# Intavis CelluSpots™ technique was used for preparing a peptide array. Specifically, the peptide array was prepared by the following procedures: (1) synthesizing a target peptide on an amino-modified cellulose disk by using an automated synthesizer (MultiPep RS from Intavis), (2) dissolving said amino-modified cellulose disk to obtain a solution of a peptide bound to cellulose, and (3) spotting said peptide bound to cellulose on a coated slide glass. The detail of each procedure is as follows.
# Said peptide array was used to measure whether each peptide fragment is bound by an IgE antibody in the serum from a WDEIA patient due to an antigen-antibody reaction, or not. This measurement was performed in accordance with the following procedures. […]
# (7) Chemiluminescence of the peptide that was treated as described in the above (1) to (6) was measured by using Amersham Imager 600.
# [2] = system: anti-human IgE antibody as a secondary antibody; assay: Epitope mapping (3): alanine scanning ELISA, secondary antibody used alone; assay type: binding; conditions: alanine-substituted peptides, FIG. 3
# Excerpt: FIG. 3 is a diagram showing the result of investigation of positions important for exerting antigenicity in SEQ ID NOs: 22 and 29 by an alanine scanning technique. The number on the horizontal axis denotes a value of coloration intensity at 450 nm measured by an absorption spectrometer (Abs.). In this figure, a double wavy line denotes that a value is not shown, P1 denotes that the serum from patient 1 was used, N1 and N2 denote that the sera from healthy individuals 1 and 2 were used, and 2nd denotes that an anti-human IgE antibody as a secondary antibody was used alone.
# (§1) The amino acid sequence of SEQ ID NO: 22 and the amino acid sequence of SEQ ID NO: 29 identified in the above-mentioned (B) were subjected to a technique referred to as alanine scanning (Non Patent Literature 1). Specifically, a library of peptide fragments was prepared by a technique similar to that described above in (B), in which the peptide fragments were produced by substituting one amino acid at a time with alanine in each amino acid sequence of […], starting from the amino acid at an amino terminal side. Then, a technique similar to that described above in (B) was used to measure whether each peptide fragment was bound by the IgE antibody in the serum from a patient and a healthy subject, or not. When alanine substitution of an amino acid at a certain position led to loss or reduction of binding activity to the IgE antibody from the patient and development of binding activity to the IgE antibody from the healthy subject, the amino acid was determined to be an amino acid important for expression of inherent antigenicity or an amino acid affecting expression of inherent antigenicity. […] A common sequence important for expression of inherent antigenicity was discovered by this analysis.
# (§2) The result of alanine scanning performed on the amino acid sequence of SEQ ID NO: 22 and the result of alanine scanning performed on the amino acid sequence of SEQ ID NO: 29 are shown in FIG. 3, respectively.
# [3] = system: IgE antibody from the healthy subject; assay: Epitope mapping (3): alanine scanning ELISA, healthy subject serum; assay type: binding, human; conditions: alanine-substituted peptides; sera from healthy individuals 1 and 2; FIG. 3
# Protocol: as §1, §2
# [4] = system: IgE antibody from the patient; assay: Epitope mapping (3): alanine scanning ELISA, patient serum; assay type: binding, human; conditions: alanine-substituted peptides; serum from patient 1; FIG. 3
# Protocol: as §1, §2
binding of IgE antibody to peptide spot (chemiluminescence) [1],binding activity to the anti-human IgE antibody as the secondary antibody (absorbance at 450 nm) [2],binding activity to the IgE antibody from the healthy subject (absorbance at 450 nm) [3],binding activity to the IgE antibody from the patient (absorbance at 450 nm) [4],Substance
"bound, in a manner specific to a patient",,,,SEQ ID NO: 13: peptide of amino acids 161 to 175 of the full-length ω-5 gliadin from bread wheat (SEQ ID NO: 51) (PQQQPPQQHQFPQQQ; epitope)
"bound, in a manner specific to a patient",,,,SEQ ID NO: 6: peptide of amino acids 221 to 235 of the full-length ω-5 gliadin from bread wheat (SEQ ID NO: 51) (QQFPQQEFPQQQQFP; epitope)
,did not develop binding activity,did not develop binding activity,reduced binding activity,SEQ ID NO: 32: amino acid at position 5 in SEQ ID NO: 22 substituted with alanine (QQFPQQEFPAQQQFP; modified epitope)
